Results reported in publication PMC3608532, “Characterization of a Single-Chain Variable Fragment Recognizing a Linear Epitope of Aβ: A Biotechnical Tool for Studies on Alzheimer’s Disease?” (PLoS ONE, 2013).

Columns and labels:
Aβ(1-8) = experiment: SPR binding kinetics to immobilized Aβ(1-8)
Protocol: (§1) Binding kinetics were determined by SPR using a Biacore™ X (GE Healthcare, UK). Synthetic Aβ peptides were dissolved in 10 mM NaAc, pH 4.0. The CM5 sensor chip surface (GE Healthcare, UK) was activated using N-ethyl-N′-3 […] carbodiimide (EDC) and N-hydroxysuccinimide (NHS) chemistry followed by 2-(2-pyridinyldithio)ethaneamine hydrochloride (PDEA), in order to introduce a reactive thiol group. Aβ was coupled via the C-terminal cysteine to the chip at a flow rate of 5 µl/min, and the remaining active groups were blocked by injecting cysteine. The immobilization procedure was performed according to manufacturer’s recommendation. All kinetic analyses were performed at a flow rate of 20 µl/min in PBS. Varying concentrations of scFv-IC16 (10 to 5000 nM) and IC16 (10 to 1000 nM) were injected. […] When required, the surface was regenerated by injecting 20 µl 50 mM glycine, pH 11.0. The data evaluation was performed using Biaevaluation Software 4.1.1. ScFv-IC16 data were fitted according to the Langmuir 1∶1 binding model, whereas IC16 data were fitted according to the bivalent binding model. Standard errors of equilibrium dissociation constants (KD) were calculated using standard errors of the corresponding association and dissociation rate constants.

Aβ(pE3-8) = experiment: SPR binding kinetics to immobilized Aβ(pE3-8); settings: SPR; two N-terminal residues truncated, E3 modified into pyroE3
Protocol: as §1

With “scFv-IC16: single-chain variable fragment (VH-(Gly4Ser)3-VL, His6- and Myc-tag) derived from Aβ binding monoclonal antibody IC16, expressed in E. coli” the k on (Aβ(1-8); SPR Biacore X, Aβ peptide coupled via C-terminal cysteine to CM5 chip, PBS, 25°C, 20 µl/min, global fit, scFv-IC16 Langmuir 1:1 model, IC16 bivalent model, ± standard error, SEM) was 3.10±0.02×10^4 M^-1 s^-1, the Kd (Aβ(1-8); SPR Biacore X, CM5 chip, PBS, 25°C, global fit, scFv-IC16 Langmuir 1:1 model, IC16 bivalent model, standard error from kon and koff errors, SEM) was 553 nM and the k off (Aβ(1-8); SPR Biacore X, CM5 chip, PBS, 25°C, global fit, scFv-IC16 Langmuir 1:1 model, IC16 bivalent model, ± standard error, SEM) was 1.72±0.005×10^−2 s^-1. For the same substance, the Kd (Aβ(1-8); SPR, Langmuir 1:1 binding model) was 550 nM and the “binding to Aβ(pE3-8)” value (Aβ(pE3-8)) was “no binding could be detected”.
